In ChEMBL document CHEMBL1201862, “PubChem BioAssay data set” (2004):
The source made the active and inactive calls.

Legend:
Caspase-3 [1] = target: T1, Caspase-3 (Homo sapiens, UniProt P42574); assay type: functional
T1 sequence (P42574 whole entry): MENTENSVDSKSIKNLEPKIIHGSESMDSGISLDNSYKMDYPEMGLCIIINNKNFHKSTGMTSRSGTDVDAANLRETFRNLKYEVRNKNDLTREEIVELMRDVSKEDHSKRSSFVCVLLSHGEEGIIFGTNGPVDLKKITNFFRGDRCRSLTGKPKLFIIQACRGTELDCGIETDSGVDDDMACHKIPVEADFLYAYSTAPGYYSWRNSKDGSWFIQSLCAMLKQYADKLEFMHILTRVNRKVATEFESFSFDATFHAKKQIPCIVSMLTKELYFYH

[2] = target: T2, Sentrin-specific protease 7 (Homo sapiens, UniProt Q9BQF6); assay type: functional;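 also: Luminescence-based dose-response confirmation of ultra-high-throughput screening hits, measuring inhibition of SENP7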
T2 sequence (Q9BQF6 whole entry): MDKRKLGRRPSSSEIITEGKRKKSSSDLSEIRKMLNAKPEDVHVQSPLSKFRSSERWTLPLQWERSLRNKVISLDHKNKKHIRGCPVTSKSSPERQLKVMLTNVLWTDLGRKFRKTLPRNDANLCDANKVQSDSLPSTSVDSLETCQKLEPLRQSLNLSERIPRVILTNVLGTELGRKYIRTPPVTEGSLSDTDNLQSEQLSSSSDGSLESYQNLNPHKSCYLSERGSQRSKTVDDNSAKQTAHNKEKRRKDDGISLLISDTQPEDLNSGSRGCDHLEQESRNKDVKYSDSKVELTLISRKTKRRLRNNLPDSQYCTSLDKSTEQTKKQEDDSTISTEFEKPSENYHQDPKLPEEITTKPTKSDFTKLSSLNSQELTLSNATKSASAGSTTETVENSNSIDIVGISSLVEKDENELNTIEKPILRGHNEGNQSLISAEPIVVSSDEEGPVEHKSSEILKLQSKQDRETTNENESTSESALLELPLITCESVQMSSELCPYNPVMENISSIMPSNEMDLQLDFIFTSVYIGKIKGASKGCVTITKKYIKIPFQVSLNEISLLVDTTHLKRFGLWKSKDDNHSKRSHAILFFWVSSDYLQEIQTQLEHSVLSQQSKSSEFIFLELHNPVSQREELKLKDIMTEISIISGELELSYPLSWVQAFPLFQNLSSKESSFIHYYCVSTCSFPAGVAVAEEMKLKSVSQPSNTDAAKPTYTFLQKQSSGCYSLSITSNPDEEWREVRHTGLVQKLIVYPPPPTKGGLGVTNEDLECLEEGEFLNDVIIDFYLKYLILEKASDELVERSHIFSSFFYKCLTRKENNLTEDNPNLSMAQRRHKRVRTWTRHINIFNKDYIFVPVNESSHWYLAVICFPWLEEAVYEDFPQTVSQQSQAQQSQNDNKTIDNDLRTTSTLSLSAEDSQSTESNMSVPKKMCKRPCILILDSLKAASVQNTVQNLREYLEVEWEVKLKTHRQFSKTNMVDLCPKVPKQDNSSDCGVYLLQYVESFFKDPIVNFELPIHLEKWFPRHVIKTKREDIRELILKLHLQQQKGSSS

[3] = target: T3, Sentrin-specific protease 6 (Homo sapiens, UniProt Q9GZR1); assay type: functional
T3 sequence (Q9GZR1 whole entry): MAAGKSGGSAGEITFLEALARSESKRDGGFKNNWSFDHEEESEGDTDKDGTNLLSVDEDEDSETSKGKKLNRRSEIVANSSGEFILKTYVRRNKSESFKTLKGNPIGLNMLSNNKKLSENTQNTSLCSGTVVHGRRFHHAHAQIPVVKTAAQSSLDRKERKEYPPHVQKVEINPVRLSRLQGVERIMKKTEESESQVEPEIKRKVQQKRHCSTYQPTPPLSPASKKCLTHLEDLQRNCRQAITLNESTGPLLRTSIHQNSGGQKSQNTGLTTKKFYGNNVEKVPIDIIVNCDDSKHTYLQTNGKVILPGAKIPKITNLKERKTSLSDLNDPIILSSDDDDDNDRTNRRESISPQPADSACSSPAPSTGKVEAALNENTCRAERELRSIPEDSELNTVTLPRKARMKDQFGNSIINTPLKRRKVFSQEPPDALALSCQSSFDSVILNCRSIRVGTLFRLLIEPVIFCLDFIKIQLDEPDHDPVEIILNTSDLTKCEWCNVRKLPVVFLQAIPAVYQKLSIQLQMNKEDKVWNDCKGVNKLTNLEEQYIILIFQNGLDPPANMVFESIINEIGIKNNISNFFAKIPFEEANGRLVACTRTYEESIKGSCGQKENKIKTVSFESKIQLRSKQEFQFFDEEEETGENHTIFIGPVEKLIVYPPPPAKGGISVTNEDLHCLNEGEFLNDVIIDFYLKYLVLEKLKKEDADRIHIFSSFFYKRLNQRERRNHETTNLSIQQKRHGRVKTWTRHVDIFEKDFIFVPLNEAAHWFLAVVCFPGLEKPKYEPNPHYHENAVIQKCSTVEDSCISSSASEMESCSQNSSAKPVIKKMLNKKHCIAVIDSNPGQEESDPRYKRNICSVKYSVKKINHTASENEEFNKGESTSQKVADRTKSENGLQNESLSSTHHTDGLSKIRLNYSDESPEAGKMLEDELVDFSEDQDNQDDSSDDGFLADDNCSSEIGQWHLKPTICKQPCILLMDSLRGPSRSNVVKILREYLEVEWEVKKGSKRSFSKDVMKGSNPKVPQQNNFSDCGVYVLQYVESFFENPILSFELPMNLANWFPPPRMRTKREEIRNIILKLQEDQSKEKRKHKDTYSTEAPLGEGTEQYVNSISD

[4] = target: T4, Sentrin-specific protease 8 (Homo sapiens, UniProt Q96LD8); assay type: functional;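 also: luminescence read-out of SENP8 inhibition, dose-response confirmation following an ultra-high-throughput screen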
T4 sequence (Q96LD8 whole entry): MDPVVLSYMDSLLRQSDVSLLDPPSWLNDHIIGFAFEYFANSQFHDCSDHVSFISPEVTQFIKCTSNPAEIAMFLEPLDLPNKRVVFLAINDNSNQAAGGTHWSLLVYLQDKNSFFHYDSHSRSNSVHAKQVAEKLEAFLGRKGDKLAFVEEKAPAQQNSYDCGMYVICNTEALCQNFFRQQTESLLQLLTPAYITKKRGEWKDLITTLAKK

[5] = target: T4, Sentrin-specific protease 8; experiment: inhibition of human SENP8 cleavage activity – biochemical, luminescence, SAR follow-up (AID 504501); assay type: functional
Caspase-3 [6] = target: T1, Caspase-3; experiment: SAR Analysis of small molecule inhibitors of Sentrin-specific proteases (SENPs) using a Caspase-3 Selectivity assay. [Related pubchem assays (depositor defined):AID2540, AID2599, AID434973, AID489001]; assay type: functional
[7] = target: T3, Sentrin-specific protease 6; experiment: SAR Analysis of small molecule inhibitors of Sentrin-specific protease 6 (SENP6) using a Luminescent assay. [Related pubchem assays (depositor defined):AID2582, AID2599]; assay type: functional
[8] = target: T2, Sentrin-specific protease 7; experiment: inhibition of human SENP7 cleavage activity – biochemical, luminescence, SAR follow-up (AID 504497); assay type: functional
Insulin-degrading enzyme [9] = target: T5, Insulin-degrading enzyme (Homo sapiens, UniProt P14735); experiment: recombinant IDE activation, cell-free – biochemical, fluorescence polarization, counter-screen for IDE activator project, dose response (AID 588681)
T5 sequence (P14735 whole entry): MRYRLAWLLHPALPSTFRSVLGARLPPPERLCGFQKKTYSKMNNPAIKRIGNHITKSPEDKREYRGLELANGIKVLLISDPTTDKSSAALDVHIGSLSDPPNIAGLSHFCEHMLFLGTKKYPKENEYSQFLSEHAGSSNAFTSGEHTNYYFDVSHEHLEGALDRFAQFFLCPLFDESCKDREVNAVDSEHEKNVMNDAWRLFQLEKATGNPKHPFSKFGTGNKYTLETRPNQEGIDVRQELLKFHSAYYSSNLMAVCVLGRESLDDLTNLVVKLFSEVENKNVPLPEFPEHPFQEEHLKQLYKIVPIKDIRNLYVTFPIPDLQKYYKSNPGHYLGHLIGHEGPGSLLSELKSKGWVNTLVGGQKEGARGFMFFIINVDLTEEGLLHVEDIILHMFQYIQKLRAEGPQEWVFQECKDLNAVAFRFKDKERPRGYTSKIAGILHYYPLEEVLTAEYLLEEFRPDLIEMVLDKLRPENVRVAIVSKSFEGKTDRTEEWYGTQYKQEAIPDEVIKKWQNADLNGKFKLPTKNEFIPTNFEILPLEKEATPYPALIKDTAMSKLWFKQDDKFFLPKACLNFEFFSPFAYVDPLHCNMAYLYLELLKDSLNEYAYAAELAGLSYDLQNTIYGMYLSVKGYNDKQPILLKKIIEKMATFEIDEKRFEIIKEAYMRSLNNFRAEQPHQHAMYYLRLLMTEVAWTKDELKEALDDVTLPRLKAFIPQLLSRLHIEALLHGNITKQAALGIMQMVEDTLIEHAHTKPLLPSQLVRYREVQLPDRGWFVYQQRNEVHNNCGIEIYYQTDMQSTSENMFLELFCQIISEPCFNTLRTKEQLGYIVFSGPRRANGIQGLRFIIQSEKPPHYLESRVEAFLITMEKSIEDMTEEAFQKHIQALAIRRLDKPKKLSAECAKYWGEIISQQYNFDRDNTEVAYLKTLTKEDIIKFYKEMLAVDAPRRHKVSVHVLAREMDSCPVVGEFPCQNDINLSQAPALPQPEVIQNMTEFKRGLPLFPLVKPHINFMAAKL

Insulin-degrading enzyme [10] = target: T5, Insulin-degrading enzyme; experiment: cellular IDE activation of Abeta substrate cleavage – fluorescence polarization, HEK cells, dose response (AID 588439); assay type: functional, cell-based
HEK293 [11] = experiment: membrane integrity loss in HEK cells – cell-based, fluorescence, cytotoxicity control for IDE activator project, dose response (AID 588440); assay type: functional; conditions: Homo sapiens;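 also: cytotoxicity by LDH release measuring loss of membrane integrity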
HEK293 [12] = experiment: optical interference in Abeta FP readout, dose response, artefact control for IDE activator project, biochemical, fluorescence polarization (AID 588442); assay type: functional, cell-based; conditions: Homo sapiens
BJ [13] = experiment: BJ-TERT fibroblast viability loss – cell-based, RAS-independent, luminescence, dose response (AID 1933); assay type: functional; conditions: Homo sapiens
BJ [14] = experiment: cells; assay type: functional, cell-based; conditions: Homo sapiens
BJ [15] = experiment: BJ-TERT-LT-ST fibroblast viability loss – cell-based, RAS-independent, luminescence, dose response (AID 1935); assay type: functional; conditions: Homo sapiens;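 also: BJ fibroblasts immortalized with TERT plus LT and ST oncogenes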
[16] = DRD fibroblast viability loss – cell-based, non-viral oncogenic, luminescence, dose response (AID 1934); assay type: functional; conditions: Homo sapiens
BJ [17] = experiment: growth inhibition of engineered Ras-driven BJ cells – cell-based, alamar blue fluorescence, cherrypicked samples, dose response (AID 2631); assay type: functional; conditions: Homo sapiens;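 also: confirmatory dose-response assay in RAS-dependent BJ fibroblasts engineered with TERT, LT and ST, with cytotoxicity read by fluorescence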
[18] = luciferase reporter signal suppression in cells – H4 neuroglioma cells, luminescence, dose response (AID 1990); assay type: functional, cell-based
[19] = tested on: Streptococcus sp. 'group A'; experiment: Streptococcus pyogenes SK(-)GAS viability under kanamycin – luminescence, BacTiterGlo, confirmation, counter-screen for streptokinase expression inhibitor project, dose response (AID 1900); assay type: functional, organism-based
[20] = Luminescence Cell-Based Dose Response HTS to Identify Inhibitors of 5'UTR Stem-Loop Driven Prion Protein mRNA Translation in H4 Neuroglioblastoma Cells. [Related pubchem assays: 1827 (Project Summary), 1813 (Primary HTS)]; assay type: functional
[21] = alpha-synuclein stem-loop luciferase translation blockers – H4 neuroglioma cells, luminescence, confirmation (AID 1988); assay type: functional, cell-based
Streptococcus = experiment: GAS UMAA2166 growth inhibition – luminescence, BacTiterGlo, counter-screen for streptokinase expression inhibitor project, dose response (AID 1915); assay type: functional, organism-based;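 also: potency for reduction of bacterial viability or growth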
Nonstructural protein 1 = Nonstructural protein 1 (Influenza A virus, UniProt Q194T2); assay type: functional, Influenza A virus (A/California/07/2009(H1N1))
HEK293 [22] = experiment: EBV LMP1 TES2 canonical NF-kB signalling blockers – cell-based, HEK293, luciferase, cherry-pick, dose response (AID 588343); assay type: functional; conditions: Homo sapiens

Sequence of Nonstructural protein 1 (Q194T2 whole entry): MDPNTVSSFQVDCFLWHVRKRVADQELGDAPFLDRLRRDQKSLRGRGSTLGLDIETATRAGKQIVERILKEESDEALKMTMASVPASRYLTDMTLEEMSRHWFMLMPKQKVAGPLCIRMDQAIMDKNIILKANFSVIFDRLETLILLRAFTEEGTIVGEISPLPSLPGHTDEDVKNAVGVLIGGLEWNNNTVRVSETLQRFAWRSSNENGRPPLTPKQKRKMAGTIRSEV

For `Cn1cc(/C=C/C(=O)c2ccccc2)c2ccccc21`, the IC50 (Caspase-3 [1]) was 17.7 µM (active), the IC50 [2] was 3.24 µM (active) and the IC50 [3] was 7.58 µM (active). The IC50 [4] was 64.9 µM (active).
In the case of `CCOc1cc(C(=S)N2CCCC2)ccc1OCc1ccccc1F`, the IC50 [5] was > 99 µM (inactive), the IC50 (Caspase-3 [6]) was > 99 µM (inactive) and the IC50 [7] was > 99 µM (inactive). The IC50 [8] was > 99 µM (inactive).
For `COCCN=C(S)N(C)C1(c2ccccc2Cl)CCCCC1=O` (stereo not given), the EC50 (Insulin-degrading enzyme [9]) was > 54.7 µM (inactive), the EC50 (Insulin-degrading enzyme [10]) was > 54.7 µM (inactive) and the IC50 (HEK293 [11]) was > 89.2 µM (inactive). The EC50 (HEK293 [12]) was > 55.9 µM (inactive).
With `COc1c(C(=O)Nc2ccc3[nH]c(O)nc3c2)cc2ccccc2c1Br` the EC50 (Insulin-degrading enzyme [9]) was > 54.7 µM (inactive), the EC50 (Insulin-degrading enzyme [10]) was > 54.7 µM (inactive) and the IC50 (HEK293 [11]) was 34.5 µM (inactive). For the same compound, the EC50 (HEK293 [12]) was > 54.7 µM (inactive).
For `COc1ccc(-c2coc3cc4oc(=O)c5ccccc5c4cc23)cc1F`, the EC50 (BJ [13]) was 0.669 µM (inconclusive), the EC50 (BJ [14]) was 109 µM (inconclusive) and the EC50 (BJ [15]) was 0.66 µM (inconclusive). For the same compound, the EC50 [16] was 0.923 µM (active) and the EC50 (BJ [17]) was 0.618 µM (inconclusive).
For `Cc1ccnc(Nc2nc(-c3ccc(F)cc3)cs2)c1`, the IC50 (Caspase-3 [1]) was 44.4 µM (active), the IC50 [2] was 6.9 µM (active) and the IC50 [3] was 38.4 µM (active). The IC50 [4] was 9.93 µM (active).
For `O=[N+]([O-])c1ccc(O)c(/C=N/Nc2ncnc3c2cnn3-c2ccccc2)c1`, the EC50 [18] was 11.4 µM (active), the EC50 [19] was 1.02 µM (active) and the EC50 [20] was 23.6 µM (active). The EC50 [21] was 5.1 µM (inconclusive), the EC50 (Streptococcus) was 1.01 µM (active) and the IC50 (Caspase-3 [1]) was > 100 µM (inactive). The IC50 [2] was 1.94 µM (active), the IC50 (Nonstructural protein 1) was > 100 µM (active) and the IC50 [3] was 11.3 µM (active). For the same compound, the IC50 [4] was 2.44 µM (active), the AC50 (HEK293 [22]) was 18.5 µM (active) and the IC50 [5] was 1.49 µM (active). The IC50 (Caspase-3 [6]) was 4.42 µM (active), the IC50 [7] was 1.54 µM (active) and the IC50 [8] was 1.4 µM (active).
